Biological target: T1, recombinant USP1 protein (Homo sapiens, UniProt O94782, DEL125-138/DEL229-408/DEL608-737)
T1 sequence (O94782 with tags, fused parts or gaps DEL125-138/DEL229-408/DEL608-737): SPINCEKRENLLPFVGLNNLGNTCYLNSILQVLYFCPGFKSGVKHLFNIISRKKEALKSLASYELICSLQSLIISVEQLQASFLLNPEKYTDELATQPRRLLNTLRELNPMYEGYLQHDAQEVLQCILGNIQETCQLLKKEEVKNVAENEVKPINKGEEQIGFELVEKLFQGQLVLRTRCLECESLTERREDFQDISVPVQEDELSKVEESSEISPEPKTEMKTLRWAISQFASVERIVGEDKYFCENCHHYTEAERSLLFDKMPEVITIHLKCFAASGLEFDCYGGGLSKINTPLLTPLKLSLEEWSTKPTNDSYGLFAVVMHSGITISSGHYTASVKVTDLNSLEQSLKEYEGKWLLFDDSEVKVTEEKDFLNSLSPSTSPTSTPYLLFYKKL
Assay: Binding affinity to recombinant USP1 protein by differential scanning fluorimetry
Settings: compound 100 µM; 0.03 mg/mL USP1 (Δ1-66, Δ125-138, Δ229-408, Δ608-737); Tm with compound minus Tm with DMSO; read-out: ΔTm (°C)
Procedure: <Experimental Example 1> Confirmation and evaluation of the binding affinity to recombinant USP1 protein
To evaluate the binding affinity of the compounds of the present invention to the USP1 protein, the following experiment was performed using differential scanning fluorimetry.
Recombinant 0.03 mg/mL USP1 (Δ1-66, Δ125-138, Δ229-408, Δ608-737) protein, dye reagent, and buffer solution (50 mM Tris-HCl pH 8.0, 150 mM NaCl, 2% glycerol, 1 mM DTT) were mixed and 19 µL of the mixture was dispensed into a well plate (MicroAmp Fast 96-Well Reaction plate, 0.1 mL). Each compound was injected at a final concentration of 100 µM in an amount of 1 µL, and the plate containing a total of 20 µL was sealed with MicroAmp Optical Adhesive Film. The melting temperature (Tm) of the protein in each well was measured using a real-time PCR (RT-PCR) device. The difference between the Tm of the sample containing the compound and the Tm containing DMSO is referred to as delta Tm (ΔTm), where a larger ΔTm value indicates stronger binding affinity. The degree of temperature at which the protein is modified in the presence of the compound compared to DMSO was calculated according to Equation 1 below: [formula]

Question: Which ΔTm at 100 µM does the source give for `COc1ncnc(C2CC2)c1-c1ncc2cc(C(=O)NC3CCN(S(C)(=O)=O)CC3)n(Cc3ccc(-c4nc(C(F)(F)F)cn4C(C)C)cc3)c2n1` [Example 74, 2-(4-cyclopropyl-6-methoxypyrimidin-5-yl)-7-(4-(1-isopropyl-4-(trifluoromethyl)-1H-imidazol-2-yl)benzyl)-N-(1-(methylsulfonyl)piperidin-4-yl)-7H-pyrrolo[2,3-d]pyrimidine-6-carboxamide] here?
Answer: The ΔTm at 100 µM was over 5 °C.

Question: Which ΔTm at 100 µM does the source give for `COc1ncnc(C2CC2)c1-c1ncc2cc(C(=O)N(C)C3CC3)n(Cc3ccc(-c4nc(C(F)(F)F)cn4C(C)C)cc3)c2n1` [Example 76, N-cyclopropyl-2-(4-cyclopropyl-6-methoxypyrimidin-5-yl)-7-(4-(1-isopropyl-4-(trifluoromethyl)-1H-imidazol-2-yl)benzyl)-N-methyl-7H-pyrrolo[2,3-d]pyrimidine-6-carboxamide] here?
Answer: The ΔTm at 100 µM was over 5 °C.

Question: `COc1ncnc(C2CC2)c1-c1ncc2cc(C(=O)Nc3ccc(CN(C)C)cc3)n(Cc3ccc(-c4nc(C(F)(F)F)cn4C(C)C)cc3)c2n1` [Example 77, 2-(4-cyclopropyl-6-methoxypyrimidin-5-yl)-N-(4-((dimethylamino)methyl)phenyl)-7-(4-(1-isopropyl-4-(trifluoromethyl)-1H-imidazol-2-yl)benzyl)-7H-pyrrolo[2,3-d]pyrimidine-6-carboxamide] was tested. Which ΔTm at 100 µM did it give?
Answer: The ΔTm at 100 µM was over 5 °C.

Question: With `COc1ncnc(C2CC2)c1-c1ncc2cc(C(=O)N[C@H](C)CO)n(Cc3ccc(-c4nc(C(F)(F)F)cn4C(C)C)cc3)c2n1` [Example 81, (R) -2-(4-cyclopropyl-6-methoxypyrimidin-5-yl)-N-(1-hydroxypropan-2-yl)-7-(4-(1-isopropyl-4-(trifluoromethyl)-1H-imidazol-2-yl)benzyl)-7H-pyrrolo[2,3-d]pyrimidine-6-carboxamide] as the molecule, how does the ΔTm at 100 µM read?
Answer: Its ΔTm at 100 µM is over 5 °C.

Question: How did the ΔTm at 100 µM turn out when `COc1ncnc(C2CC2)c1-c1ncc2cc(C(=O)N[C@@H](C)CCO)n(Cc3ccc(-c4nc(C(F)(F)F)cn4C(C)C)cc3)c2n1` [Example 91, (S)-2-(4-cyclopropyl-6-methoxypyrimidin-5-yl)-N-(4-hydroxybutan-2-yl)-7-(4-(1-isopropyl-4-(trifluoromethyl)-1H-imidazol-2-yl)benzyl)-7H-pyrrolo[2,3-d]pyrimidine-6-carboxamide] was run?
Answer: The ΔTm at 100 µM was over 5 °C.

Question: Which ΔTm at 100 µM does the source give for `COc1ncnc(C2CC2)c1-c1ncc2cc(C(=O)NC3CCS(=O)(=O)CC3)n(Cc3ccc(-c4nc(C(F)(F)F)cn4C(C)C)cc3)c2n1` [Example 93, 2-(4-cyclopropyl-6-methoxypyrimidin-5-yl)-N-(1,1-dioxidotetrahydro-2H-thiopyran-4-yl)-7-(4-(1-isopropyl-4-(trifluoromethyl)-1H-imidazol-2-yl)benzyl)-7H-pyrrolo[2,3-d]pyrimidine-6-carboxamide] here?
Answer: Its ΔTm at 100 µM is over 5 °C.

Question: For `COc1ncnc(C2CC2)c1-c1ncc2cc(C(=O)N3CC(C(F)F)C3)n(Cc3ccc(-c4nc(C(F)(F)F)cn4C(C)C)cc3)c2n1` [Example 96, (2-(4-cyclopropyl-6-methoxypyrimid in-5-yl)-7-(4-(1-isopropyl-4-(trifluoromethyl)-1H-imidazol-2-yl)benzyl)-7H-pyrrolo[2,3-d]pyrimidin-6-yl) (3-(difluoromethyl)azetidin-1-yl)methanone], which ΔTm at 100 µM is on record?
Answer: Its ΔTm at 100 µM is over 5 °C.

Question: With `COc1ncnc(C2CC2)c1-c1ncc2cc(C(=O)NCCN3CCNCC3)n(Cc3ccc(-c4nc(C(F)(F)F)cn4C(C)C)cc3)c2n1` [Example 98, 2-(4-cyclopropyl-6-methoxypyrimidin-5-yl)-7-(4-(1-isopropyl-4-(trifluoromethyl)-1H-imidazol-2-yl)benzyl) -N-(2-(piperazin-1-yl)ethyl)-7H-pyrrolo[2,3-d]pyrimidine-6-carboxamide] as the molecule, how does the ΔTm at 100 µM read?
Answer: The ΔTm at 100 µM was over 5 °C.

Question: For `COc1ncnc(C2CC2)c1-c1ncc2cc(C(=O)N(C)C3CNC3)n(Cc3ccc(-c4nc(C(F)(F)F)cn4C(C)C)cc3)c2n1` [Example 103, N-(azetidin-3-yl)-2-(4-cyclopropyl-6-methoxypyrimidin-5-yl)-7-(4-(1-isopropyl-4-(trifluoromethyl) -1H-imidazol-2-yl)benzyl)-N-methyl-7H-pyrrolo[2,3-d]pyrimidine-6-carboxamide], which ΔTm at 100 µM is on record?
Answer: Its ΔTm at 100 µM is over 5 °C.

Question: With `COc1ncnc(C2CC2)c1-c1ncc2cc(C(=O)N3CCCC3(C)C)n(Cc3ccc(-c4nc(C(F)(F)F)cn4C(C)C)cc3)c2n1` [Example 107, (2-(4-cyclopropyl-6-methoxypyrimid in-5-yl)-7-(4-(1-isopropyl-4-(trifluoromethyl)-1H-imidazol-2-yl)benzyl)-7H-pyrrolo[2,3-d]pyrimidin-6-yl)(2,2-dimethylpyrrolidin-1-yl)methanone] as the molecule, how does the ΔTm at 100 µM read?
Answer: The ΔTm at 100 µM was over 5 °C.

Question: Which ΔTm at 100 µM does the source give for `COc1ncnc(C2CC2)c1-c1ncc2cc(C(=O)NO)n(Cc3ccc(-c4nc(C(F)(F)F)cn4C(C)C)cc3)c2n1` [Example 120, 2-(4-cyclopropyl-6-methoxypyrimidin-5-yl)-N-hydroxy-7-(4-(1-isopropyl-4-(trifluoromethyl)-1H-imidazol-2-yl)benzyl)-7H-pyrrolo[2,3-d]pyrimidine-6-carboxamide] here?
Answer: Its ΔTm at 100 µM is over 5 °C.

Question: Which ΔTm at 100 µM does the source give for `COCCN1CC[C@@H](NC(=O)c2cc3cnc(-c4c(OC)ncnc4C4CC4)nc3n2Cc2ccc(-c3nc(C(F)(F)F)cn3C)cc2)[C@@H](F)C1` [Example 160, 2-(4-cyclopropyl-6-methoxypyrimidin-5-yl)-N-((3S,4R)-3-fluoro-1-(2-methoxyethyl)piperidin-4-yl)-7-(4-(1-methyl-4-(trifluoromethyl)-1H-imidazol-2-yl)benzyl)-7H-pyrrolo[2,3-d]pyrimidine-6-carboxamide] here?
Answer: The ΔTm at 100 µM was over 5 °C.

Question: Which ΔTm at 100 µM does the source give for `COc1ncnc(C2CC2)c1-c1ncc2cc(C(=O)N3CCCC3)n(Cc3ccc(-c4nc(C(F)(F)F)cn4C)cc3)c2n1` [Example 192, (2-(4-cyclopropyl-6-methoxypyrimid in-5-yl)-7-(4-(1-methyl-4-(trifluoromethyl)-1H-imidazol-2-yl)benzyl)-7H-pyrrolo[2,3-d]pyrimidin-6-yl) (pyrrolidin-1-yl)methanone] here?
Answer: The ΔTm at 100 µM was over 5 °C.

Question: Which ΔTm at 100 µM does the source give for `CNC(=O)c1cc2cnc(-c3c(O)ncnc3C3CC3)nc2n1Cc1ccc(-c2nc(C(F)(F)F)cn2C)cc1` [Example 206, 2-(4-cyclopropyl-6-hydroxypyrimidin-5-yl)-N-methyl-7-(4-(1-methyl-4-(trifluoromethyl)-1H-imidazol-2-yl)benzyl)-7H-pyrrolo[2,3-d]pyrimidine-6-carboxamide] here?
Answer: Its ΔTm at 100 µM is under 5 °C.

Question: With `CNC(=O)c1cc2cnc(-c3c(OC)ncnc3C3CC3)nc2n1Cc1ccc(-n2nc(C(F)(F)F)cc2C(=O)O)cc1` [Example 213, 1-(4-((2-(4-cyclopropyl-6-methoxypyrimidin-5-yl)-6-(methylcarbamoyl)-7H-pyrrolo[2,3-d]pyrimidin-7-yl)methyl)phenyl)-3-(trifluoromethyl)-1H-pyrazol-5-carboxylic acid] as the molecule, how does the ΔTm at 100 µM read?
Answer: Its ΔTm at 100 µM is under 5 °C.

Question: Which ΔTm at 100 µM does the source give for `CNC(=O)c1cc2cnc(-c3c(OC)ncnc3C3CC3)nc2n1CC12CCC(c3nc(C(F)(F)F)cn3C(C)C)(CC1)CO2` [Example 226, 2-(4-cyclopropyl-6-methoxypyrimidin-5-yl)-7-(((1s,4s)-4-(1-isopropyl-4-(trifluoromethyl)-1H-imidazol-2-yl)-2-oxabicyclo[2.2 .2]octan-1-yl)methyl)-N-methyl-7H-pyrrolo[2,3-d]pyrimidine-6-carboxamide] here?
Answer: The ΔTm at 100 µM was under 5 °C.

Tested on: UWB1.289 cells
Assay: Cell proliferation inhibitory activity in BRCA1/2-mutant or HRD-positive cells (Cell Titer-Glo)
Type: cell-based
Settings: UWB1.289 cells, 144 hours after compound treatment, Cell Titer-Glo, 1.5 nM to 10 µM; read-out: GI50 UWB1.289 BRCA1 mut
Procedure: <Experimental Example 2> Evaluation of Cell Proliferation Inhibitory Activity in BRCA1/2-Mutant or HRD-Positive Cells
To evaluate the inhibitory activity of the compound according to the present invention on the proliferation of BRCA1/2 mutants or homologous recombination deficient (HRD) positive cell lines, the following experiments were performed. UWB1.289 cells were cultured in medium (50% MEBM + 50% RPMI1640), and 1,000 cells were seeded in a well plate (black clear bottom 96-well plate, Corning) 16 to 24 hours prior to compound treatment. The compounds were diluted in dimethyl sulfoxide (3-fold serial dilution starting at 10 µM, for a total of 10 concentrations) and injected at 1 µl per well, resulting a final concentration range of […] to 10 µM. Measurements of live cells were performed by a reaction in a 37 °C and CO2 incubator for 144 hours after compound treatment. The cells were incubated for 10 minutes in an incubator using Cell Titer-Glo luminescent cell-viability reagent (Promega), and luminescence intensity thereof was measured using a reader (SynergyNeo2, Biotek). GI50 values were calculated using the GraphPad Prism version 8.4.3 (GraphPad software Inc., San Diego) program.

Question: For “2-(4-cyclopropyl-6-methoxypyrimid in-5-yl)-N-((3,3-difluorocyclob utyl)methyl) - 7-(4-(1-isopropyl-4-(trifluorometh yl)-1H-imidazol-2-yl)benzyl)-7H-pyrrolo[2,3-d]pyrimidine-6-carboxamide [Example 84]”, which GI50 is on record?
Answer: Its GI50 is 100 to 500 nM.

Source: patent EP4806898A1, “HETEROARYL DERIVATIVE COMPOUND AND USE THEREOF” (Voronoi Inc., priority 2023, dated 2025)
